Values quoted from earlier work, collected in patent publication US8067462B2, “Processes of making sesquiterpenoid tashironin, its analogs and their uses” (The Trustees of Columbia University in the City of New York, priority 2004, dated 2011).

System: neurite growth

Q: For C[C@@H]1CC[C@@]2(O)C13CC(=O)C1(C)C2(C)CO[C@]1(O)[C@@H]3O [11-O-debenzoyltashironin], which “concentration at which neurite growth is promoted” value (promotes neurite growth at concentrations as low as (Huang et al. 2001)) is on record?
A: ≥ 0.1 µmol

Q: For tashironin, which neurotrophic activity (reported on isolation from the wood of illicium tashiroi (Fukuyama et al. 1995)) is on record?
A: inactive
